Results from patent US4176116A, “Dipeptide derivatives” (Hoffmann-La Roche Inc., priority 1976, dated 1979).
Peptide text beside a SMILES is read from it. * marks the point of attachment. Tos = Cc1ccc(S(=O)(=O)*)cc1; Isobutyryl = CC(C)C(=O)*; Pentanoyl = CCCCC(=O)*; PhAc = O=C(Cc1ccccc1)*; Piv = CC(C)(C)C(=O)*; Bz = O=C(c1ccccc1)*

Molecular target: T1, human granulocyte elastase (Homo sapiens, UniProt P08246)
T1 sequence (P08246 30-267): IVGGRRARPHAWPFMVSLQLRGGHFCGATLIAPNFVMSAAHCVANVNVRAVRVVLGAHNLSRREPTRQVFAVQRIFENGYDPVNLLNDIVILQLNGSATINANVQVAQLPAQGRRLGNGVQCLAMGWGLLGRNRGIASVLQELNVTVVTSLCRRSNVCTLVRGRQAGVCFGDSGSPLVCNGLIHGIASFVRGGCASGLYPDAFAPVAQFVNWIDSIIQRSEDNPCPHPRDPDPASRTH
Assay: in vitro elastase inhibition, test method of Visser and Blout
Format: biochemical
Conditions: human granulocyte elastase as the enzyme; read-out: I50 (concentration which gives 50% inhibition of the human granulocyte elastase)
Description: Acta 268 (1972) 257, using porcine pancreatic elastase as the enzyme. The results obtained with representative dipeptide derivatives in this test are given in Table I hereinafter, the Ki being the inhibitor constant in millimoles per liter:
The result obtained with a representative dipeptide derivative in this test is given in Table II hereinafter, the I50 being the concentration in millimoles per liter which gives 50% inhibition of the human granulocyte elastase: […]

For `CCNC(=O)[C@@H]1CCCN1C(=O)[C@H](C)NS(=O)(=O)c1ccc(C)cc1` [N-(p-Toluenesulphonyl)-L-alanyl-L-proline ethylamide] (Tos-Ala-Pro-NHEt), the IC50 was 900 µM.

Molecular target: porcine pancreatic elastase (Sus scrofa, UniProt P00772)
Sequence (P00772 27-266): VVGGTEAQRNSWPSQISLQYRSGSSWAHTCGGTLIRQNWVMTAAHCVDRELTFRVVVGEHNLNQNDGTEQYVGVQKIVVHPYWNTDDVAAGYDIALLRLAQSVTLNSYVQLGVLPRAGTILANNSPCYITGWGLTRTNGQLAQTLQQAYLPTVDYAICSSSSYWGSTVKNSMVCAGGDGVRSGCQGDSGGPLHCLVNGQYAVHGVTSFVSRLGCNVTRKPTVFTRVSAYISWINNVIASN
Assay: as above
Format: biochemical
Conditions: porcine pancreatic elastase as the enzyme; read-out: Ki (inhibitor constant)
Description: Acta 268 (1972) 257, using porcine pancreatic elastase as the enzyme. The results obtained with representative dipeptide derivatives in this test are given in Table I hereinafter, the Ki being the inhibitor constant in millimoles per liter: […]

In order of falling Ki:
1. CCNC(=O)[C@H](C)NC(=O)[C@H](C)NC(=O)c1ccccc1 [N-Benzoyl-L-alanyl-L-alanine ethylamide] (Bz-Ala-Ala-NHEt)  120 µM
2. CCNC(=O)[C@@H]1CCCN1C(=O)[C@H](C)NC(=O)C(C)(C)C [N-Pivaloyl-L-alanyl-L-proline ethylamide] (Piv-Ala-Pro-NHEt)  90 µM
3. CCNC(=O)[C@@H]1CCCN1C(=O)[C@H](C)NC(=O)Cc1ccccc1 [N-Phenacetyl-L-alanyl-L-proline ethylamide] (PhAc-Ala-Pro-NHEt)  86 µM
4. CCCCC(=O)N[C@@H](C)C(=O)N1CCC[C@H]1C(=O)NCC [N-(n-Valeryl)-L-alanyl-L-proline ethylamide] (Pentanoyl-Ala-Pro-NHEt)  80 µM
5. CCNC(=O)[C@@H]1CCCN1C(=O)[C@H](C)NC(=O)C(C)C [N-Isobutanoyl-L-alanyl-L-proline ethylamide] (Isobutyryl-Ala-Pro-NHEt)  60 µM
6. CCNC(=O)[C@@H]1CCCN1C(=O)[C@H](C)NC(=O)c1ccccc1 [N-Benzoyl-L-alanyl-L-proline ethylamide] (Bz-Ala-Pro-NHEt)  26 µM
7. CCNC(=O)[C@@H]1CCCN1C(=O)[C@H](C)NC(=O)C1CCCCC1 [N-Cyclohexylcarbonyl-L-alanyl-L-proline ethylamide]  10 µM
